A word on the IC50: it is the concentration that inhibits the measured activity by half. A high value points to weaker potency in that assay.

The test has as its target T1, Steryl-sulfatase (Homo sapiens, UniProt P08842).
T1 sequence (P08842 whole entry): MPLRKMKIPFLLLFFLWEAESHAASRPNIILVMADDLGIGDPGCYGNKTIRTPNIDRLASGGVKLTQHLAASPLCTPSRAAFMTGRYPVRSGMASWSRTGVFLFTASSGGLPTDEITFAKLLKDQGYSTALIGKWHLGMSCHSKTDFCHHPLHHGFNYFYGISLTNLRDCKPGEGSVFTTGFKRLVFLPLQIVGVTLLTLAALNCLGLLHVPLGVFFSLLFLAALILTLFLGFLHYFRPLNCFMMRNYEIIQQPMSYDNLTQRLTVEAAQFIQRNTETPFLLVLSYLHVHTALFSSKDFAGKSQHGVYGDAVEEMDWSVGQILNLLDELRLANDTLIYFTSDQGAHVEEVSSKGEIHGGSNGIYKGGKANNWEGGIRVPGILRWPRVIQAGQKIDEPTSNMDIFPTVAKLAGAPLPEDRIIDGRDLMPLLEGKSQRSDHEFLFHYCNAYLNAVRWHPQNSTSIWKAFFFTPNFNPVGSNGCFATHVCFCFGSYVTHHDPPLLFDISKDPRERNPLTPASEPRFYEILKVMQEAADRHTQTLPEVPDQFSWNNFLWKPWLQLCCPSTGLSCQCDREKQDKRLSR
Kind of test: Inhibition of human steroid sulfatase compared to EMATE.
`NS(=O)(=O)Oc1cccc(C(=O)c2cccc(OS(N)(=O)=O)c2)c1`: the IC50 amounted to 3.2 µM.

In turn, `NS(=O)(=O)Oc1ccc(C(=O)c2ccccc2)cc1` displayed an IC50 of 5.1 µM.

In turn, `NS(=O)(=O)Oc1cccc(C(=O)c2ccc(O)cc2)c1` returned an IC50 of 5 µM.

Consider `NS(=O)(=O)Oc1cccc(C(=O)c2ccccc2)c1`, for which the IC50 is 5.7 µM.

Consider `COc1ccc(C(=O)c2cccc(OS(N)(=O)=O)c2)cc1`, for which the IC50 turned out to be 6.9 µM.

`NS(=O)(=O)Oc1ccc(C(=O)c2ccc(OS(N)(=O)=O)cc2)cc1` registered an IC50 of 0.19 µM.

`NS(=O)(=O)Oc1ccc(C(=O)c2ccccc2O)cc1` came in with an IC50 of 4.6 µM.

Turning to `C[C@]12CC[C@@H]3c4ccc(OS(N)(=O)=O)cc4CC[C@H]3[C@@H]1CCC2=O` [EMATE], the IC50 amounted to 0.056 µM.

`COc1ccccc1C(=O)c1ccc(OS(N)(=O)=O)cc1` yielded an IC50 of 4.8 µM.

Turning to `NS(=O)(=O)Oc1ccc(C(=O)c2cccc(OS(N)(=O)=O)c2)cc1`, the IC50 came to 0.78 µM.

On to `COc1cccc(C(=O)c2cccc(OS(N)(=O)=O)c2)c1`, for which half-maximal inhibition (IC50) was put at 7.1 µM.

The compound `COc1cccc(C(=O)c2ccc(OS(N)(=O)=O)cc2)c1` gave a 50% inhibitory concentration (IC50) of 5.2 µM.

Consider `NS(=O)(=O)Oc1cccc(C(=O)c2cccc(O)c2)c1`, for which half-maximal inhibition (IC50) was put at 6.9 µM.
